Measurements reported in ChEMBL document CHEMBL3885861, “Open TG-GATES”.

Species on record: Rattus norvegicus
Assay: Open TG-GATES - Regimen: Daily Repeat
Format: toxicity, organism-based, Sprague-Dawley
Parameters: regimen Daily Repeat, gender Male, age 6 weeks
Conditions: in vivo, po, 1000 mg/kg, route gavage, dose level High; for APTT / Bas / Eos / Fbg / Hb / Ht / Lym / MCHC / MCV / Mono / Neu / PT / Plat / RBC / Ret / WBC: tissue Blood; for KIDNEY_L / KIDNEY_R / KIDNEY_TOTAL: tissue Kidney; for LIVER: tissue Liver; for ALP / ALT / AST / CRE / DBIL / GLC / IP / K / LDH / Na / PL / RALB / TBIL / TC / TG / TP / gamma-GTP: tissue Plasma

C#C[C@]1(O)CC[C@H]2[C@@H]3CCC4=Cc5oncc5C[C@]4(C)[C@H]3CC[C@@]21C [DANAZOL]
TERMINAL_BW (72 h, time 3 day): 232.8 g | APTT (72 h, time 3 day): 23.9 s | Bas (72 h, time 3 day): 0% | Eos (72 h, time 3 day): 1% | Fbg (72 h, time 3 day): 355.8 mg/dL | Hb (72 h, time 3 day): 13.1 g/dL | Ht (72 h, time 3 day): 39.4% | Lym (72 h, time 3 day): 83% | MCHC (72 h, time 3 day): 33.3% | MCV (72 h, time 3 day): 63 fL | Mono (72 h, time 3 day): 3% | Neu (72 h, time 3 day): 12.2% | PT (72 h, time 3 day): 16.6 s | Plat (72 h, time 3 day): 122.2 x10_4/uL | RBC (72 h, time 3 day): 626 x10_4/ul | Ret (72 h, time 3 day): 5.3% | WBC (72 h, time 3 day): 100.4 x10_2/uL | KIDNEY_L (72 h, time 3 day): 1.1 g | KIDNEY_R (72 h, time 3 day): 1.1 g | KIDNEY_TOTAL (72 h, time 3 day): 2.2 g | LIVER (72 h, time 3 day): 13.1 g | ALP (72 h, time 3 day): 1658.2 IU/L | ALT (72 h, time 3 day): 39.2 IU/L | AST (72 h, time 3 day): 60.6 IU/L | CRE (72 h, time 3 day): 0.2 mg/dL | DBIL (72 h, time 3 day): 0 mg/dL | GLC (72 h, time 3 day): 173.4 mg/dL | IP (72 h, time 3 day): 7.6 mg/dL | K (72 h, time 3 day): 4.5 meq/L | LDH (72 h, time 3 day): 153.4 IU/L | Na (72 h, time 3 day): 141 meq/L | PL (72 h, time 3 day): 116.2 mg/dL | RALB (72 h, time 3 day): 3.1 g/dL | TBIL (72 h, time 3 day): 0 mg/dL | TC (72 h, time 3 day): 47.2 mg/dL | TG (72 h, time 3 day): 132.6 mg/dL | TP (72 h, time 3 day): 5.8 g/dL | gamma-GTP (72 h, time 3 day): 2 IU/L | TERMINAL_BW ([…], time 7 day): 261.4 g | TERMINAL_BW ([…], time 14 day): 289.1 g | TERMINAL_BW ([…], time 28 day): 372.5 g | APTT ([…], time 7 day): 25.7 s | Bas ([…], time 7 day): 0% | Eos ([…], time 7 day): 0.8% | Fbg ([…], time 7 day): 351.6 mg/dL | Hb ([…], time 7 day): 14 g/dL | Ht ([…], time 7 day): 41.5% | Lym ([…], time 7 day): 86.4% | MCHC ([…], time 7 day): 33.8% | MCV ([…], time 7 day): 60 fL | Mono ([…], time 7 day): 1.6% | Neu ([…], time 7 day): 10.4% | PT ([…], time 7 day): 16.7 s | Plat ([…], time 7 day): 143.9 x10_4/uL | RBC ([…], time 7 day): 693.2 x10_4/ul | Ret ([…], time 7 day): 4.9% | WBC ([…], time 7 day): 103.6 x10_2/uL | APTT ([…], time 14 day): 28.9 s | Bas ([…], time 14 day): 0% | Eos ([…], time 14 day): 0.8% | Fbg ([…], time 14 day): 345.6 mg/dL | Hb ([…], time 14 day): 14.8 g/dL | Ht ([…], time 14 day): 42.1% | Lym ([…], time 14 day): 86.8% | MCHC ([…], time 14 day): 35.2% | MCV ([…], time 14 day): 57.3 fL | Mono ([…], time 14 day): 2.2% | Neu ([…], time 14 day): 9.6% | PT ([…], time 14 day): 17.1 s | Plat ([…], time 14 day): 119 x10_4/uL | RBC ([…], time 14 day): 734.6 x10_4/ul | Ret ([…], time 14 day): 2.4% | WBC ([…], time 14 day): 81.2 x10_2/uL | APTT ([…], time 28 day): 27.7 s | Bas ([…], time 28 day): 0% | Eos ([…], time 28 day): 1.2% | Fbg ([…], time 28 day): 320.6 mg/dL | Hb ([…], time 28 day): 14.3 g/dL | Ht ([…], time 28 day): 41.9% | Lym ([…], time 28 day): 79.4% | MCHC ([…], time 28 day): 34.1% | MCV ([…], time 28 day): 56.1 fL | Mono ([…], time 28 day): 3% | Neu ([…], time 28 day): 15.8% | PT ([…], time 28 day): 18.2 s | Plat ([…], time 28 day): 112.3 x10_4/uL | RBC ([…], time 28 day): 749 x10_4/ul | Ret ([…], time 28 day): 2.2% | WBC ([…], time 28 day): 69.9 x10_2/uL | KIDNEY_L ([…], time 7 day): 1.1 g | KIDNEY_R ([…], time 7 day): 1.2 g | KIDNEY_TOTAL ([…], time 7 day): 2.3 g | KIDNEY_L ([…], time 14 day): 1.3 g | KIDNEY_R ([…], time 14 day): 1.4 g | KIDNEY_TOTAL ([…], time 14 day): 2.7 g | KIDNEY_L ([…], time 28 day): 1.5 g | KIDNEY_R ([…], time 28 day): 1.5 g | KIDNEY_TOTAL ([…], time 28 day): 3 g | LIVER ([…], time 7 day): 13.2 g | LIVER ([…], time 14 day): 15 g | LIVER ([…], time 28 day): 18 g | ALP ([…], time 7 day): 1593 IU/L | ALT ([…], time 7 day): 36.4 IU/L | AST ([…], time 7 day): 61.2 IU/L | CRE ([…], time 7 day): 0.1 mg/dL | DBIL ([…], time 7 day): 0 mg/dL | GLC ([…], time 7 day): 184 mg/dL | IP ([…], time 7 day): 7 mg/dL | K ([…], time 7 day): 4.3 meq/L | LDH ([…], time 7 day): 136.6 IU/L | Na ([…], time 7 day): 142.4 meq/L | PL ([…], time 7 day): 121 mg/dL | RALB ([…], time 7 day): 3.2 g/dL | TBIL ([…], time 7 day): 0 mg/dL | TC ([…], time 7 day): 44.2 mg/dL | TG ([…], time 7 day): 200.6 mg/dL | TP ([…], time 7 day): 5.8 g/dL | gamma-GTP ([…], time 7 day): 2.4 IU/L | ALP ([…], time 14 day): 1541.2 IU/L | ALT ([…], time 14 day): 37.6 IU/L | AST ([…], time 14 day): 58.6 IU/L | CRE ([…], time 14 day): 0.2 mg/dL | DBIL ([…], time 14 day): 0 mg/dL | GLC ([…], time 14 day): 174.8 mg/dL | IP ([…], time 14 day): 7.2 mg/dL | K ([…], time 14 day): 4.3 meq/L | LDH ([…], time 14 day): 133.8 IU/L | Na ([…], time 14 day): 142.2 meq/L | PL ([…], time 14 day): 124.2 mg/dL | RALB ([…], time 14 day): 3.1 g/dL | TBIL ([…], time 14 day): 0 mg/dL | TC ([…], time 14 day): 38.6 mg/dL | TG ([…], time 14 day): 255.8 mg/dL | TP ([…], time 14 day): 6.2 g/dL | gamma-GTP ([…], time 14 day): 2.8 IU/L | ALP ([…], time 28 day): 1028.8 IU/L | ALT ([…], time 28 day): 37.6 IU/L | AST ([…], time 28 day): 55.8 IU/L | CRE ([…], time 28 day): 0.2 mg/dL | DBIL ([…], time 28 day): 0 mg/dL | GLC ([…], time 28 day): 177.8 mg/dL | IP ([…], time 28 day): 6.6 mg/dL | K ([…], time 28 day): 4.2 meq/L | LDH ([…], time 28 day): 122.6 IU/L | Na ([…], time 28 day): 141.6 meq/L | PL ([…], time 28 day): 133.6 mg/dL | RALB ([…], time 28 day): 3.2 g/dL | TBIL ([…], time 28 day): 0 mg/dL | TC ([…], time 28 day): 41.4 mg/dL | TG ([…], time 28 day): 275.4 mg/dL | TP ([…], time 28 day): 6.4 g/dL | gamma-GTP ([…], time 28 day): 3.6 IU/L
